Measured values taken from PubChem BioAssay (NCI).
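Tested at 5 concentrations; 48 h exposure; 96-well plates; endpoints linearly interpolated, else capped at highest concentration. At the GI50, growth is halved. TGI marks complete inhibition of growth.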

Tests used:
Assay in all cases: NCI-60 cell line screen, 48 h
HL-60(TB) leukemia = tested on: HL-60(TB) leukemia
HOP-92 NSCLC = tested on: HOP-92 NSCLC
LOX IMVI melanoma = tested on: LOX IMVI melanoma
MCF7 breast = tested on: MCF7 breast
RPMI-8226 leukemia = tested on: RPMI-8226 leukemia
SF-268 CNS = tested on: SF-268 CNS
SF-539 CNS = tested on: SF-539 CNS
SK-MEL-2 melanoma = tested on: SK-MEL-2 melanoma
SK-OV-3 ovarian = tested on: SK-OV-3 ovarian
UO-31 renal = tested on: UO-31 renal

Row | SMILES | TGI (HL-60(TB) leukemia) | TGI (HOP-92 NSCLC) | TGI (LOX IMVI melanoma) | TGI (MCF7 breast) | TGI (RPMI-8226 leukemia) | TGI (SF-268 CNS) | TGI (SF-539 CNS) | TGI (SK-MEL-2 melanoma) | TGI (SK-OV-3 ovarian) | TGI (UO-31 renal) | GI50 (HL-60(TB) leukemia) | GI50 (HOP-92 NSCLC) | GI50 (LOX IMVI melanoma) | GI50 (MCF7 breast) | GI50 (RPMI-8226 leukemia) | GI50 (SF-268 CNS) | GI50 (SF-539 CNS) | GI50 (SK-MEL-2 melanoma) | GI50 (SK-OV-3 ovarian) | GI50 (UO-31 renal)
1 | O=C1/C(=C/c2ccc(Cl)cc2)CCC1CN1CCOCC1 (configuration not stated) | 3.8 µM | 16.1 µM | 5.24 µM | 21 µM | > 28.3 µM | 45.9 µM | 34.6 µM | 33.8 µM | 31.9 µM | 22.4 µM |  |  |  |  |  |  |  |  |  | 
2 | CN(C)c1ccc2cc3ccc(N(C)C)cc3nc2c1 | 3.66 µM | 20 µM | 3.63 µM | 11.5 µM | 4.09 µM | 6.26 µM | 6.53 µM | 21.9 µM | 13.9 µM | 4.11 µM |  |  |  |  |  |  |  |  |  | 
3 | Cc1ccc2nc3c(n2c1)C(=O)C(=O)c1ccccc1-3 | 0.602 µM | 2.17 µM | 0.276 µM | 0.308 µM | 0.717 µM | 4.01 µM | 0.326 µM | 0.849 µM | 2.47 µM | 1 µM | 0.17 µM | 0.71 µM | 0.132 µM | 0.14 µM | 0.18 µM | 0.4 µM | 0.164 µM | 0.293 µM | 1.01 µM | 0.194 µM
4 | CNC(=O)c1cc(Oc2ccc3nc(N[C@@H]4CCCC[C@H]4O)sc3c2)ccn1 | > 100 µM | > 100 µM | > 100 µM | > 100 µM | > 100 µM | > 100 µM | > 100 µM | > 100 µM | > 100 µM | > 100 µM | 62.5 µM | 31.9 µM | 58.4 µM | 36.6 µM | > 54.1 µM | 68 µM | 36.3 µM | > 87.8 µM | > 100 µM | 33.5 µM
5 | Cc1ccc(-c2cc(-c3ccc(C)cc3)nc(N3CCN(CCNc4ccnc5cc(Cl)ccc45)CC3)n2)cc1 | 11.6 µM | 4.25 µM | 6.07 µM | 13.4 µM | > 50 µM | 21.9 µM | 5.84 µM | 20.3 µM | 14.2 µM | 5.53 µM | 2.42 µM | 0.963 µM | 1.82 µM | 2.11 µM | 3.48 µM | 4.88 µM | 1.68 µM | 7.89 µM | 5.49 µM | 1.16 µM
6 | O=c1c2c(=NCCN3CCCC3)cc3c(=O)n(CCCN4CCOCC4)c(=O)c4ccc(c(O)n1CCCN1CCOCC1)c2c4-3 | 1.43 µM | 0.607 µM | 0.443 µM | 1.13 µM | 1.09 µM | 0.751 µM | 1.43 µM | 0.874 µM | 2.15 µM |  | 0.338 µM | 0.129 µM | 0.192 µM | 0.0752 µM | 0.146 µM | 0.165 µM | 0.345 µM | 0.239 µM | 0.381 µM | 
7 | CN(C)c1ccc(Nc2c3ccccc3nc3cc(NC(=O)CCN4CCCC4)ccc23)cc1 | 0.763 µM | 2.14 µM | 1.46 µM | 1.61 µM | 0.711 µM | 1.88 µM | 1.92 µM | 3.33 µM | 1.78 µM | 1.92 µM | 0.19 µM | 0.379 µM | 0.21 µM | 0.0711 µM | 0.185 µM | 0.473 µM | 0.65 µM | 1.75 µM | 0.413 µM | 0.595 µM
8 | O=C1/C(=C/c2ccc(Cl)cc2)CN(C(=O)CCN2CCC(=NO)CC2)C/C1=C\c1ccc(Cl)cc1 | 4.9 µM | 3.54 µM | 0.57 µM | 1.59 µM | 0.552 µM | 2.98 µM | 2.55 µM | 3.92 µM | 4.21 µM | 2.3 µM | 1.37 µM | 1.64 µM | 0.224 µM | 0.284 µM | 0.157 µM | 0.942 µM | 1.21 µM | 1.95 µM | 1.94 µM | 1.01 µM
9 | O=C(Nc1ccc(Oc2ccc(NC(=O)Nc3ccc([N+](=O)[O-])cc3)cc2)cc1)Nc1ccc([N+](=O)[O-])cc1 | 3.41 µM | 2.07 µM | 10.7 µM | 6.22 µM | 1.84 µM | > 100 µM | 20.6 µM | 4.29 µM | 7.51 µM | > 26.4 µM | 0.787 µM |  | 1.78 µM | 1.68 µM | 0.303 µM | 3.1 µM | 3.07 µM | 2.03 µM | 2.27 µM | 0.516 µM
10 | COc1cc(C(=O)O/N=C(\N)Cc2cccc3ccccc23)cc(OC)c1OC | 36.5 µM | 17 µM | 16.9 µM | 8.81 µM | 12.6 µM | 22.9 µM | 10.4 µM | 29.4 µM | 30.6 µM | 19.6 µM | 5.35 µM | 4.59 µM | 3.41 µM | 2.57 µM | 3.02 µM | 7.55 µM | 2.97 µM | 14.9 µM | 16.5 µM | 5.26 µM
